Results as given in PMC12806454 (Quantitative Biology, 2024).

Tests used:
[1] = target: Mpro of HKU1 (Human coronavirus HKU1, UniProt P0C6X2); assay: biochemical
[2] = target: Mpro of NL63 (Human coronavirus NL63, UniProt P0C6X5); assay: biochemical
[3] = rat, in vivo, iv; cited from earlier work
[4] = target: Mpro of SARS-CoV-1 (Severe acute respiratory syndrome coronavirus, UniProt P0C6X7); assay: biochemical
[5] = target: Mpro of OC43 (Human coronavirus OC43, UniProt P0C6X6); assay: biochemical
[6] = target: Mpro of 229E (Human coronavirus 229E, UniProt P0C6X1); assay: biochemical
[7] = target: Mpro of MERS (Middle East respiratory syndrome-related coronavirus, UniProt K9N7C7); assay: biochemical
Mpro of MERS, sequence (K9N7C7 3248-3553 limits assumed): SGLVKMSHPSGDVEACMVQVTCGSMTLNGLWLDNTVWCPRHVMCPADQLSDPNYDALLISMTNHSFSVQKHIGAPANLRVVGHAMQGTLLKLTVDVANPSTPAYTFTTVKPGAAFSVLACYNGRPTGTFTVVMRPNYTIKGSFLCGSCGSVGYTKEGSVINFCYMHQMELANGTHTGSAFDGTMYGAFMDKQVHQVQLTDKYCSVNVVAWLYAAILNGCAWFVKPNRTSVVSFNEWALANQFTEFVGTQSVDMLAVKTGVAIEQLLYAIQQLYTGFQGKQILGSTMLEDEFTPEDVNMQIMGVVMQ

Mpro of HKU1, sequence (P0C6X2 3335-3637): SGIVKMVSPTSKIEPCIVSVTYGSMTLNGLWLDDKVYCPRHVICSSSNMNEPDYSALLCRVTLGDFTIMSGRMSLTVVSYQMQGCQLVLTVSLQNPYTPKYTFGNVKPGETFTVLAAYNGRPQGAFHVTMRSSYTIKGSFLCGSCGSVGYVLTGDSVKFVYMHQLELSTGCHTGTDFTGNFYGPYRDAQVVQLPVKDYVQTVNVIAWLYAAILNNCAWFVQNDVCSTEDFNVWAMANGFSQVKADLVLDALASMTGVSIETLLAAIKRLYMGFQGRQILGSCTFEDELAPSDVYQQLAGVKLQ
Mpro of NL63, sequence (P0C6X5 2940-3242): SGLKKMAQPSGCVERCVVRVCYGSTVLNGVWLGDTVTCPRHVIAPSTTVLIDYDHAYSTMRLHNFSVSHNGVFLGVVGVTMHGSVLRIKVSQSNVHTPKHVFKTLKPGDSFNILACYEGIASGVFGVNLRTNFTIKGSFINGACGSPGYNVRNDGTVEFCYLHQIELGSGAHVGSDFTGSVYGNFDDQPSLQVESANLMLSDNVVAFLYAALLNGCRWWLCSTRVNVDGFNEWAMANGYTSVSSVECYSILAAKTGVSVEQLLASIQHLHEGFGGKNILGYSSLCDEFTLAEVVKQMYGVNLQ
Mpro of 229E, sequence (P0C6X1 2966-3267): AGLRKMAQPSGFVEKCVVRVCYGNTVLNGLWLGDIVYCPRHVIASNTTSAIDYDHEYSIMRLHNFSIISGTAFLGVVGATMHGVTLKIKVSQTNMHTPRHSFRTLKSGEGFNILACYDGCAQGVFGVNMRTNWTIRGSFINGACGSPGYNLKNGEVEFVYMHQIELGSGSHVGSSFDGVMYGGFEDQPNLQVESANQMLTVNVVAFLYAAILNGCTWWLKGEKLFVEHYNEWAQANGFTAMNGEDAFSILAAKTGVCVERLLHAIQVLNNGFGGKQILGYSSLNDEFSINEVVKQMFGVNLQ
Mpro of OC43, sequence (P0C6X6 3247-3549): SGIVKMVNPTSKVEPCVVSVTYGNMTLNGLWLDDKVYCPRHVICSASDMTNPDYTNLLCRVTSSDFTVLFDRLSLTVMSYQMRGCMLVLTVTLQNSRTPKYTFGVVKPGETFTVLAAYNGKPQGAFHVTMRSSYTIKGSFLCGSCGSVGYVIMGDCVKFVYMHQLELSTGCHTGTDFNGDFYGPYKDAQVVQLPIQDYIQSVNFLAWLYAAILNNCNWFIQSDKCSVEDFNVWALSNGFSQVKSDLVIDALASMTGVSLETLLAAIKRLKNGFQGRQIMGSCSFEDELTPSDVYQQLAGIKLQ

SMILES	IC50 [1]	IC50 [2]	half-life [3]	IC50 [4]	IC50 [5]	IC50 [6]	IC50 [7]
CC(C)CC(NC(=O)OCc1ccccc1)C(=O)NC(CC1CCNC1=O)C(O)S(=O)(=O)O (centres unmarked) [GC376]	73.3 nM	438 nM	–	–	–	–	–
CC(C)(C)[C@H](NC(=O)C(F)(F)F)C(=O)N1C[C@H]2[C@@H]([C@H]1C(=O)N[C@H](C#N)C[C@@H]1CCNC1=O)C2(C)C [Nirmatrelvir, nirmatrelvir]	–	–	0.5 h	–	–	–	–
O=C(NC1CCCC1)C(=O)[C@H](C[C@@H]1CCNC1=O)NC(=O)[C@@H]1[C@H]2CCC[C@H]2CN1C(=O)[C@@H](NC(=O)C(F)(F)F)C1CCCCC1 [Leritrelvir, leritrelvir]	52.3 nM	272 nM	4.8 h	73 nM	53.2 nM	101 nM	945 nM
Cn1cnc(Cn2c(=O)[nH]/c(=N\c3cc4cn(C)nc4cc3Cl)n(Cc3cc(F)c(F)cc3F)c2=O)n1 [Ensitrelvir, ensitrelvir]	–	–	2.4 h	–	–	–	–
